Measurements taken from patent publication US10660877B2 (BRISTOL-MYERS SQUIBB COMPANY, priority 2016, dated 2020).

Legend:
[1] = target: human TLR7 (Homo sapiens (Human), UniProt Q9NYK1); assay: TLR7 inhibition reporter assay (HEK-Blue cells, SEAP reporter, gardiquimod stimulation); assay type: cell-based; conditions: HEK-Blue cells overexpressing human TLR7, gardiquimod 7.5 μM
[2] = target: human TLR9 (Homo sapiens (Human), UniProt Q9NR96); assay: TLR9 inhibition reporter assay (HEK-Blue cells, SEAP reporter, ODN2006 stimulation); conditions: read-out: TLR9 IC50, HEK-Blue cells overexpressing human TLR9, ODN2006 5 nM;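 further: compounds tested over 0.05 nM to 50 µM, 22 h incubation, inhibition taken as SEAP signal drop from agonist plus DMSO wells toward a known inhibitor control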
Sequence of human TLR9 (Q9NR96 26-1032): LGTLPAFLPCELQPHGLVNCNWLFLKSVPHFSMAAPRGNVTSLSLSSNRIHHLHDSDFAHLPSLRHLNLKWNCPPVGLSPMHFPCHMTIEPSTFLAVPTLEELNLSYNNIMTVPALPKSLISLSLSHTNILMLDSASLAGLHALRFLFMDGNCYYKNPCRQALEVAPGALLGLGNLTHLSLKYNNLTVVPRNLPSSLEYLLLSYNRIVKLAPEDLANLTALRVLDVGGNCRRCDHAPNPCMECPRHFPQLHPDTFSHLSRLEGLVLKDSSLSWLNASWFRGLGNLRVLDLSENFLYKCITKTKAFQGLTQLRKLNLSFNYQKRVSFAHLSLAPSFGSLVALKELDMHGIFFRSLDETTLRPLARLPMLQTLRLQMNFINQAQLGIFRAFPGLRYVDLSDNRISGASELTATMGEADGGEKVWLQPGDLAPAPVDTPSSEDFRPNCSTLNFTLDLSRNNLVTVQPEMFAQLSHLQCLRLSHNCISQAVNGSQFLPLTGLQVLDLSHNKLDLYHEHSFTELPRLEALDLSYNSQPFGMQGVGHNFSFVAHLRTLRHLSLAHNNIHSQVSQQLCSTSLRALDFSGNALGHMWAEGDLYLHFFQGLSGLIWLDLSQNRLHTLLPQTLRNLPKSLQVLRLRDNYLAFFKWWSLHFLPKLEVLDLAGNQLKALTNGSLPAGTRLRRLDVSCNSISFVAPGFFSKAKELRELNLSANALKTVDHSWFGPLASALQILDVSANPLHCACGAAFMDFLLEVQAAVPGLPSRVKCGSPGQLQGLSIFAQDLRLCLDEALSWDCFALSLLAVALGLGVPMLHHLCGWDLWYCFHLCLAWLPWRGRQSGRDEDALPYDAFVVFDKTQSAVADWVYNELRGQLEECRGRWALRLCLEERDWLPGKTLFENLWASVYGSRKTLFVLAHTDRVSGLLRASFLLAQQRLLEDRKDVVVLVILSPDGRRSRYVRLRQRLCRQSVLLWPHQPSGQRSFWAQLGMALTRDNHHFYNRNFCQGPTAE

[3] = target: human TLR8 (Homo sapiens (Human), UniProt Q9NR97); assay: TLR8 inhibition reporter assay (HEK-Blue cells, SEAP reporter, R848 stimulation); conditions: read-out: TLR8 IC50, HEK-Blue cells overexpressing human TLR8, R848 15.9 μM;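 further: compounds tested from 0.05 nM to 50 µM, 22 h at 37 °C, SEAP measured with HEK-Blue Detection, inhibition relative to agonist plus DMSO versus a known inhibitor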
Sequence of human TLR8 (Q9NR97 27-1041): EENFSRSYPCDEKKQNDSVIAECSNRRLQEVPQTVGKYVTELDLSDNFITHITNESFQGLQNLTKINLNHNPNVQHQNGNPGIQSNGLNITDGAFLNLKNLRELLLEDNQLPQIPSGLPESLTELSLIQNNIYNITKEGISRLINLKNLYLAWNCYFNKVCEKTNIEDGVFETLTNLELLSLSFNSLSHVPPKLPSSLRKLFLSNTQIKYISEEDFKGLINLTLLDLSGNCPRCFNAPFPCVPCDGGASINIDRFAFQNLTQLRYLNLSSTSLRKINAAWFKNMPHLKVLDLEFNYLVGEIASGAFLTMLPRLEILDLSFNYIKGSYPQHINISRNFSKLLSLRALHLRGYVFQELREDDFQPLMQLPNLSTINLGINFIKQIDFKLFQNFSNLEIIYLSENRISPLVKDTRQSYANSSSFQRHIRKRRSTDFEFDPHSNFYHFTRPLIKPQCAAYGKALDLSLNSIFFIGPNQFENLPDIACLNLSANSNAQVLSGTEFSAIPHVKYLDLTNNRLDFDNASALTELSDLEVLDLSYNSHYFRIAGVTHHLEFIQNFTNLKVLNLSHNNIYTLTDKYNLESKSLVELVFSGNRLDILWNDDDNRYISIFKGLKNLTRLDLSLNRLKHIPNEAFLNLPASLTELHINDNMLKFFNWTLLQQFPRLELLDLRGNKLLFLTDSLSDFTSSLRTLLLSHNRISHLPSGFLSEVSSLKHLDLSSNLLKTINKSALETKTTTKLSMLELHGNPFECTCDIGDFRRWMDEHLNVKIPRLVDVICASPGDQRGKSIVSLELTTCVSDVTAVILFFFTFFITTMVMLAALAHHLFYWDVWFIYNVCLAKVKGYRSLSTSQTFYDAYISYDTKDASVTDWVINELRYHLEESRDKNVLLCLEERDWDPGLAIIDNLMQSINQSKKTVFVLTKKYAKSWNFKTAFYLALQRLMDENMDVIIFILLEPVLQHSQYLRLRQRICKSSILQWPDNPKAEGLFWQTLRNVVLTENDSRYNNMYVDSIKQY

Sequence of human TLR7 (Q9NYK1 27-1049): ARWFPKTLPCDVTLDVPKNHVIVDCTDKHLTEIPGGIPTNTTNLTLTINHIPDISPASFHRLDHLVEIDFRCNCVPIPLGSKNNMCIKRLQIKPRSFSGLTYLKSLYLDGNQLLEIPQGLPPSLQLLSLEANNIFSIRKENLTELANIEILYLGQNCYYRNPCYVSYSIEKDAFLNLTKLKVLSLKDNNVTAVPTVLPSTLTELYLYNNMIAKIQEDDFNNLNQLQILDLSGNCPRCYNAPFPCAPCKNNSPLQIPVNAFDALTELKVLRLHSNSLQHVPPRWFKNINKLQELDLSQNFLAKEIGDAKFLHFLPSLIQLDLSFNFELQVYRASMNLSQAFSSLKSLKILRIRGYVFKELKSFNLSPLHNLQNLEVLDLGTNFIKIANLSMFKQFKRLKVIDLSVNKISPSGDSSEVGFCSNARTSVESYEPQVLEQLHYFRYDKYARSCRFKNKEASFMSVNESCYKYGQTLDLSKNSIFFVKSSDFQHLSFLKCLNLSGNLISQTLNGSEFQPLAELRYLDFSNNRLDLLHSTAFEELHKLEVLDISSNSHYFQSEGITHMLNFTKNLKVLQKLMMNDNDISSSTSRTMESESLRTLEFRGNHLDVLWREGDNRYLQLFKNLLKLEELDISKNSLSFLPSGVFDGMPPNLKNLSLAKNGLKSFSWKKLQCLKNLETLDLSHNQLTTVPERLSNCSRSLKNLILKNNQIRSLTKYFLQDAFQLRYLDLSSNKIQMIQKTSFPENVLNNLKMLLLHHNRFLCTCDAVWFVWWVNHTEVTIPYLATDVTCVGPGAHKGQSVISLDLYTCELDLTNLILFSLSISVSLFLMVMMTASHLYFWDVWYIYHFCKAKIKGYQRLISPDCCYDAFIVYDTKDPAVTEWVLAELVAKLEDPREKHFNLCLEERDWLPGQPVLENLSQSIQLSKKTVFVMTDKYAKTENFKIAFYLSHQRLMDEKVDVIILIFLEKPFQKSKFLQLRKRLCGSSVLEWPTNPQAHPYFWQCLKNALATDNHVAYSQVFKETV

Compound	IC50 [1] [nM]	IC50 [2] [nM]	IC50 [3] [nM]
Cc1cc(-c2[nH]c3ccc(C4CCN(CC(=O)N5CCC(F)(F)CC5)CC4)cc3c2C(C)C)cc(C)n1 [Example 257, 1-(4,4-difluoropiperidin-1-yl)-2-(4-(2-(2,6-dimethylpyridin-4-yl)-3-isopropyl-1H-indol-5-yl)piperidin-1-yl)ethan-1-one]	9.8	607	13.8
CCc1c(-c2ccnc(C)c2)[nH]c2ccc(C3CCN(C(=O)C4CCNCC4c4ccccc4)CC3)cc12 (stereo not drawn) [Example 627, (4-(3-ethyl-2-(2-methylpyridin-4-yl)-1H-indol-5-yl)piperidin-1-yl)(3-phenylpiperidin-4-yl)methanone]	531	546	325
COc1ncc(CN2CCC(c3ccc4[nH]c(-c5ccnc(C)c5F)c(C(C)C)c4c3)CC2)cn1 [Example 731, 2-(3-fluoro-2-methylpyridin-4-yl)-3-isopropyl-5-(1-((2-methoxypyrimidin-5-yl)methyl)piperidin-4-yl)-1H-indole]	8.9	1310	2.7
Cc1cc(-c2[nH]c3ccc(C4CCN(C(=O)c5cnn(C)c5)CC4)cc3c2C(C)C)cc(C)n1 [Example 132, (4-(2-(2,6-dimethylpyridin-4-yl)-3-isopropyl-1H-indol-5-yl)piperidin-1-yl)(1-methyl-1H-pyrazol-4-yl)methanone]	4.2	46900	90.8
CNCC(=O)N1CCC(c2ccc3[nH]c(-c4cc(C)nc(C)c4F)c(C(C)C)c3c2)CC1 [Example 622, 1-(4-(2-(3-fluoro-2,6-dimethylpyridin-4-yl)-3-isopropyl-1H-indol-5-yl)piperidin-1-yl)-2-(methylamino)ethan-1-one]	1.2	4010	6.1
Cc1cc(-c2[nH]c3ccc(C4CCN(CC(=O)NC5CCOCC5)CC4)cc3c2C(C)C)cc(C)n1 [Example 280, 2-(4-(2-(2,6-dimethylpyridin-4-yl)-3-isopropyl-1H-indol-5-yl)piperidin-1-yl)-N-(tetrahydro-2H-pyran-4-yl)acetamide]	3	350	6.1

The remaining compounds from weak to strong by IC50 [1], led by results:

IC50 [1] [nM]	IC50 [2] [nM]	IC50 [3] [nM]	Compound
1230	554	159	CCc1c(-c2ccnc(-c3nnc[nH]3)c2)[nH]c2ccc(C3CCNCC3)cc12 [Example 66, 2-(2-(4H-1,2,4-triazol-3-yl)pyridin-4-yl)-3-ethyl-5-(piperidin-4-yl)-1H-indole]
129	851	12.5	COc1cc(-c2[nH]c3ccc(C4CCN(C5CCN(C)CC5)CC4)cc3c2C(C)C)ccn1 [Example 795, 3-isopropyl-2-(2-methoxypyridin-4-yl)-5-(1′-methyl-[1,4′-bipiperidin]-4-yl)-1H-indole]
31.2	888	667	CC(C)c1c(-c2ccnc(C(C)(C)O)c2)[nH]c2ccc(C3CCNCC3)cc12 [Example 58, 2-(4-(3-isopropyl-5-(piperidin-4-yl)-1H-indol-2-yl)pyridin-2-yl)propan-2-ol]
8.2	30600	67.4	Cc1cc(-c2[nH]c3ccc(C4CCN(C(=O)CC5CCOCC5)CC4)cc3c2C(C)C)cc(C)n1 [Example 106, 1-(4-(2-(2,6-dimethylpyridin-4-yl)-3-isopropyl-1H-indol-5-yl)piperidin-1-yl)-2-(tetrahydro-2H-pyran-4-yl)ethan-1-one]
6.2	43300	88.3	Cc1cc(-c2[nH]c3ccc(C4CCN(C(=O)C(C)(C)O)CC4)cc3c2C(C)C)cc(C)n1 [Example 173, 1-(4-(2-(2,6-dimethylpyridin-4-yl)-3-isopropyl-1H-indol-5-yl)piperidin-1-yl)-2-hydroxy-2-methylpropan-1-one]
4	74	17	Cc1cc(-c2[nH]c3ccc(C4CCN(CC(=O)N5CCC(O)CC5)CC4)cc3c2C(C)C)cc(C)n1 [Example 230, 2-(4-(2-(2,6-dimethylpyridin-4-yl)-3-isopropyl-1H-indol-5-yl)piperidin-1-yl)-1-(4-hydroxypiperidin-1-yl)ethan-1-one]
